Consider four compounds from ChEMBL document CHEMBL1201862, “PubChem BioAssay data set” (2004).

Activity calls are given as the source filed them. Some results are limits rather than exact numbers.

The target in test [1] is T1, Dual specificity protein phosphatase 6 (Rattus norvegicus, UniProt Q64346).
T1 sequence (Q64346 whole entry): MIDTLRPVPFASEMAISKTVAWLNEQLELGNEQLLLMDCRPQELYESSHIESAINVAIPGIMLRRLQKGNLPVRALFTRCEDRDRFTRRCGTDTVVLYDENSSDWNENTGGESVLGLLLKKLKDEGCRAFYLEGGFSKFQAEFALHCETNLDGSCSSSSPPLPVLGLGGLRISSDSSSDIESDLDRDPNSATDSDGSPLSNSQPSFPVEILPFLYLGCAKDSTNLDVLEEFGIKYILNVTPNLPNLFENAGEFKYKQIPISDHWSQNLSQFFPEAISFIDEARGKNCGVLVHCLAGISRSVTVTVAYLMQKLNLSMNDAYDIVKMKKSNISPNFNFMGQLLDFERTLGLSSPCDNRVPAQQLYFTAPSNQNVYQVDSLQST

Test [2] deals with Heat shock 70 kDa protein 1A (Homo sapiens, UniProt P0DMV8). The test can be described thus: Hsp70 inhibitors, SAR follow-up, biochemical, fluorescence polarization (AID 1072). (Polarisation of emitted light reports the rotation of a fluorescent probe.)
Sequence of Heat shock 70 kDa protein 1A (P0DMV8 whole entry): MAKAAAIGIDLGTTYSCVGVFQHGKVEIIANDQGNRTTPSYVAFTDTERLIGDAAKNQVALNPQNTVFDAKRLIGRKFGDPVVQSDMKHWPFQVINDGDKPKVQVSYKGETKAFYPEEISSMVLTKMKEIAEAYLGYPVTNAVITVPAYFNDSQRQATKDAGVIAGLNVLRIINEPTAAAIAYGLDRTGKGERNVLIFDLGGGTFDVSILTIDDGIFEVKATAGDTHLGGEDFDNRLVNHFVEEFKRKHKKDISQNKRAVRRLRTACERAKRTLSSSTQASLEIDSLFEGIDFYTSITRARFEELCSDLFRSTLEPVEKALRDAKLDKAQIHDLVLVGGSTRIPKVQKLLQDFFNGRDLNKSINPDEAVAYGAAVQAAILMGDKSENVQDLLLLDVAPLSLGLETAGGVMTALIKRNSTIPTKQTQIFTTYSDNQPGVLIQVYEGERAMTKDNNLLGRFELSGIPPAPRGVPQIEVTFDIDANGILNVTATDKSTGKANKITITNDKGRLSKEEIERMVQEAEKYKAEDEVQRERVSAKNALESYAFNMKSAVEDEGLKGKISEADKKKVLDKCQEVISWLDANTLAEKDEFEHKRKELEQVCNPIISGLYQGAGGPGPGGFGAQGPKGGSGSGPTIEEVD
Test [3] deals with Glyceraldehyde-3-phosphate dehydrogenase (Homo sapiens, UniProt P04406).
Sequence of Glyceraldehyde-3-phosphate dehydrogenase (P04406 whole entry): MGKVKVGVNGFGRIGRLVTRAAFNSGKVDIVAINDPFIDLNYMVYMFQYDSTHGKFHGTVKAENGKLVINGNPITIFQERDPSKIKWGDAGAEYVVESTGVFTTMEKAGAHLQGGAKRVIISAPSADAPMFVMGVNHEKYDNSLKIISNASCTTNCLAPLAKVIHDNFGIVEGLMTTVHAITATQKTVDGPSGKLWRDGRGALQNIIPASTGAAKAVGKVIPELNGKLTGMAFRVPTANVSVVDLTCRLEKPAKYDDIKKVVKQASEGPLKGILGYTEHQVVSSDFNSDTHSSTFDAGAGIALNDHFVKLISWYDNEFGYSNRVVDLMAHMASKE
Test [4] has as its target T2, Tyrosine-protein phosphatase non-receptor type 7 (Homo sapiens, UniProt P35236).
T2 sequence (P35236 whole entry): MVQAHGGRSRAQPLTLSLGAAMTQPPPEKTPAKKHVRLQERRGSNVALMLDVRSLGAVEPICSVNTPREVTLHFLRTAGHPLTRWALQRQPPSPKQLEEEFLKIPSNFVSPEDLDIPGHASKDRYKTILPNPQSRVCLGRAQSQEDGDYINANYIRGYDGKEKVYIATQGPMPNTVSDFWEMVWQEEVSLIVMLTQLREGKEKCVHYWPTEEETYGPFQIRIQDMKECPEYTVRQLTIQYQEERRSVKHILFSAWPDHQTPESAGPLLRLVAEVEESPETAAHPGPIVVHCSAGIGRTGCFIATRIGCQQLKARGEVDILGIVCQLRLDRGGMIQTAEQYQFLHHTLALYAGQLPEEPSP
It counts as functional.

Test [5] addresses Heat shock cognate 71 kDa protein (Homo sapiens, UniProt P11142). Put plainly: In Vitro Hsc70 Dose Response Fluorescence Polarization Assay. [Related pubchem assays: 1072 ].
Test [6] deals with T1, Dual specificity protein phosphatase 6. It counts as functional.
Test [7] addresses Mothers against decapentaplegic homolog 3 (Homo sapiens, UniProt P84022). The test can be described thus: Smad3 binding inhibitors, lysate ELISA, dose response, cell lysate, secondary confirmation, chemiluminescent ELISA, HEK293 lysate (AID 1058). It is filed as functional. On the technique in general: ELISA stands for enzyme-linked immunosorbent assay.
In test [8] the target is Sphingosine 1-phosphate receptor 4 (Homo sapiens, UniProt O95977). The test can be described thus: Fluorescence dose response cell-based high throughput screening assay for antagonists of the Sphingosine 1-Phosphate Receptor 4 (S1P4). [Related pubchem assays: 1524 (Confirmation in triplicates.), 1510 (Primary screen.)]. It is filed as functional.
Sequence of Sphingosine 1-phosphate receptor 4 (O95977 whole entry): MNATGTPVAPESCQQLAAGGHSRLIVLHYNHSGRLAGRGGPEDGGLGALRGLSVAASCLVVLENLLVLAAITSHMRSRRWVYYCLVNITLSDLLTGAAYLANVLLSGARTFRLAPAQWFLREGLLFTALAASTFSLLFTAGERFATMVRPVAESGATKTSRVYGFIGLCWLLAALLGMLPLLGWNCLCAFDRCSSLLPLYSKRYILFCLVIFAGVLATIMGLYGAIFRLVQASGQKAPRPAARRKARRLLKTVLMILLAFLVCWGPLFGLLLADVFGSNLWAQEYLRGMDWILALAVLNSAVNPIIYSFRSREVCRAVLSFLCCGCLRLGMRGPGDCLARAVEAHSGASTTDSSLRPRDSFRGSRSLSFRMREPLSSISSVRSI
Another test deals with HeLa. Put plainly: Cytotoxicity counterscreen assay for transcriptional activators of heat shock protein 70 (Hsp70). [Related pubchem assays: 1203, 1252 ]. It counts as functional. The note with it: Homo sapiens. A general note: A counterscreen serves to expose hits that act by an unwanted route or on another target.
In test [9] the target is Sphingosine 1-phosphate receptor 1 (Homo sapiens, UniProt P21453). It counts as functional.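 Further: Tango beta-arrestin reporter U2OS cells stimulated with S1P near its EC80; inhibitor potency meaning antagonism of receptor activation by the natural agonist.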
For the next test, the target named is Paired box protein Pax-8 (Homo sapiens, UniProt Q06710). Put plainly: inhibitors of PAX8-driven TPO luciferase reporter, dose response, RMG-I cells, cherry-pick (AID 687027).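 Further: luciferase reporter driven by Pax8 target thyroperoxidase promoter measured by SteadyGlo luminescence.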 It is filed as functional, cell-based.
In test [10] the target is T3, Microphthalmia-associated transcription factor (Homo sapiens, UniProt O75030).
T3 sequence (O75030 whole entry): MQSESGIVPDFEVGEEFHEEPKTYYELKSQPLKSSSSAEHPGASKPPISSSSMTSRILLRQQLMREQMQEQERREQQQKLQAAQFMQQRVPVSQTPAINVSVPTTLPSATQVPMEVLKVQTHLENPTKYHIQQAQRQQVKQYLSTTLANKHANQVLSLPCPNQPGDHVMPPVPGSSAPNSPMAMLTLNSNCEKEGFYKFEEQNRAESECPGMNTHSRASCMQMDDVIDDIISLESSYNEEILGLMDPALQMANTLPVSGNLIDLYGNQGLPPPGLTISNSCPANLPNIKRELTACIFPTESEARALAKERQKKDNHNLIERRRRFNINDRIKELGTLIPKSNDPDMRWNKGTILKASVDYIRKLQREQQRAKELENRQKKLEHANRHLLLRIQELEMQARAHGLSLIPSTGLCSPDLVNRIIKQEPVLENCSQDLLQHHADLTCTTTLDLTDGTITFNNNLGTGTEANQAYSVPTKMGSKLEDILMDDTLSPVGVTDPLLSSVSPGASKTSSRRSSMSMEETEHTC
The test can be described thus: TRPM1 promoter luciferase signal decrease, dose response, MITF inhibitor project, cell-based, SK-MEL-5, cherry-picked, set 3 (AID 493073).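 Further: SK-MEL-5 melanoma cells with luciferase driven by the MITF target TRPM1 promoter.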 It counts as functional.

For test [11], the target named is T4, Heat shock factor protein 1 (Mus musculus, UniProt P38532).
T4 sequence (P38532 whole entry): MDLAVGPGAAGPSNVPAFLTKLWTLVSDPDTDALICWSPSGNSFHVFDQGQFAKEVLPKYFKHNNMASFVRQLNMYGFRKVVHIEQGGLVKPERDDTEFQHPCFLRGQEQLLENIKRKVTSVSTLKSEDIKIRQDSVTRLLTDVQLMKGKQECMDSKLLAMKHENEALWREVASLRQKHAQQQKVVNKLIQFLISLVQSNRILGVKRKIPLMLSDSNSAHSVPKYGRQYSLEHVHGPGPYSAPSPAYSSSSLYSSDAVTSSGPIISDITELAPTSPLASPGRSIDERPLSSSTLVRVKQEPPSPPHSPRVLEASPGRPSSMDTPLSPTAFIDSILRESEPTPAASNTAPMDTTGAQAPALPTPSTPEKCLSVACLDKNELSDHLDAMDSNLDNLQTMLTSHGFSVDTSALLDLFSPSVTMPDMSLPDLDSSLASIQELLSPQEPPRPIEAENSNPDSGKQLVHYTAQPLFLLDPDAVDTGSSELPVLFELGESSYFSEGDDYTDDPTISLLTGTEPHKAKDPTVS
Put plainly: HSF1 potentiators in luciferase reporter cells, confirmation, cell-based, NIH3T3, luminescence, dose retest (AID 435004).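 Further: stress induced by proteasome inhibitor MG132 added 30 min after compound; luciferase reporter driven by HSF1 response element in NIH3T3 cells; actives raise luminescence as potentiators of the MG132 stress response.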 It is filed as functional.

A short description of test [12]: ZM109 Env clade C HIV-1 fusion inhibitors, dose response, HeLa effector, CEM target cells, luciferase, cherry-pick (AID 652058). It counts as functional, cell-based.
Test [13] can be described thus: Luminescence-based counterscreen assay for KLF5 inhibitors: dose response cell-based high throughput screening assay to identify cytotoxic compounds using the IEC-6 intestinal epithelial cell line. [Related pubchem assays: 1700 (Primary screen.), 1834 (Confirmation screen.), 1858 (Summary AID.), 1905 (Counterscreen.)]. It is filed as functional.
The nature of test [14]: inhibitors of HIV Env-driven cell fusion, dose response, cherry-pick (AID 652057). It is filed as functional, cell-based.
The test system of the next test is INS1. The test can be described thus: beta cell apoptosis inhibitors, cytokine rescue, dose response, luminescence, retest (AID 449756).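 Further: cell death triggered by IL-1 beta plus TNF-alpha plus IFN-gamma mixture; protective hits raise ATP signal compared with cytokine alone wells.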 It counts as functional, cell-based. The note with it: Rattus norvegicus.
Test [15] in a line: Luminescence Cell-Based Dose Retest to Confirm Inhibitors of Cancer Stem Cells. [Related pubchem assays (depositor defined):AID2717, AID2721]. It is filed as functional. The note with it: Homo sapiens.
A short description of test [16]: Counterscreen for AddAB inhibitors: absorbance-based bacterial cell-based high throughput dose response assay for inhibitors of bacterial viability. [Related pubchem assays (depositor defined):AID435030, AID449728, AID449731, AID488942, AID488955, AID488956]. It counts as functional.
The nature of test [17]: inhibitors of clade B AD8 Env fusion, dose response, cell-based, cherry-pick (AID 652062).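 Further: luciferase signal from cell-cell fusion driven by HIV-1 clade B AD8 Env; potency is for inhibitors of fusion seen as a drop in luminescence.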 It counts as functional.
The nature of test [18]: CEM21 lymphoblast cell cytotoxicity, dose response, cytotoxicity control for viral fusion inhibitor project, CellTiter-Glo luminescence, cherry-picked (AID 652042).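 Further: potency for signal decrease meaning cytotoxicity.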 It counts as functional, cell-based.
The next test concerns the target Exodeoxyribonuclease V (Escherichia coli (strain K12), UniProt P04993+P07648+P08394). Put plainly: E. coli RecBCD inhibitors, dose response, counter-screen for AddAB inhibitor project, absorbance, V66 E. coli, mutant T4 phage (AID 492957). It counts as functional, cell-based, Escherichia coli str. K-12 substr. MG1655.
Test [19] is described as follows: off-target signal loss in HeLa-CEM21 co-culture – HeLa F-luc CTL cells, cherry-picked, counter-screen for HIV-1 Env fusion inhibitor project, dose response (AID 652040).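 Further: potency for signal decrease marking cytotoxic or nonspecific inhibition.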 It is filed as functional, cell-based.
Test [20] addresses Heat shock protein HSP 90-alpha (Homo sapiens, UniProt P07900). It counts as functional, organism-based.
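Wherever CC50 is given: cells exposed to compound for 16 hours before readout.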

Sequence of Mothers against decapentaplegic homolog 3 (P84022 whole entry): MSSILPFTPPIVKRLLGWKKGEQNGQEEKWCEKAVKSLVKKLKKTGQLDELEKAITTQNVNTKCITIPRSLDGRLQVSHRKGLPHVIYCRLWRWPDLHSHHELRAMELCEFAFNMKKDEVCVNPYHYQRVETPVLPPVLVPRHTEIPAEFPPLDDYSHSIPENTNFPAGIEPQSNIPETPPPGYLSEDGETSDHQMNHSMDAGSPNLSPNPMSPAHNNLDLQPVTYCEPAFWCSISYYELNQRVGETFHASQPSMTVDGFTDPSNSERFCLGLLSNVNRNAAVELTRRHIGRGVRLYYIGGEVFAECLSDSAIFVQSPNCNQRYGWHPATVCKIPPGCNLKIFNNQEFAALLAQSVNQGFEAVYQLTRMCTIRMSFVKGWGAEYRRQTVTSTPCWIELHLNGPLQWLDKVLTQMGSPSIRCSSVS
Sequence of Exodeoxyribonuclease V (P04993 whole entry, the tested form may be a part): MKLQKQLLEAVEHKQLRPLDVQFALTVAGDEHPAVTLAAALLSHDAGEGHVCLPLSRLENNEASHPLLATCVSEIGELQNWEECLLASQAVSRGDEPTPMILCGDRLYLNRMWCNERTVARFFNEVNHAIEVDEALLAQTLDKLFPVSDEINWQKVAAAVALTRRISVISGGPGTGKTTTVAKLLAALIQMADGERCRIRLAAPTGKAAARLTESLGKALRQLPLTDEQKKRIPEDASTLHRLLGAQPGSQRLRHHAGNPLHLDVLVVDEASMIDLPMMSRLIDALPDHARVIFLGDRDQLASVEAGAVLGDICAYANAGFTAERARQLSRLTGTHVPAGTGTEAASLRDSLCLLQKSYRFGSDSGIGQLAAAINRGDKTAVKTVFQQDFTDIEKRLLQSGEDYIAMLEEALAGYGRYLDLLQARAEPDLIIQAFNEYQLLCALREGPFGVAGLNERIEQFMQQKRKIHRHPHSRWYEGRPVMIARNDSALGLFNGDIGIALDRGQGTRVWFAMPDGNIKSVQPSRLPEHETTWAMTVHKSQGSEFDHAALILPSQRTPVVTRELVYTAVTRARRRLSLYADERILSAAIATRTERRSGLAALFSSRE
Sequence of Exodeoxyribonuclease V (P07648 whole entry, the tested form may be a part): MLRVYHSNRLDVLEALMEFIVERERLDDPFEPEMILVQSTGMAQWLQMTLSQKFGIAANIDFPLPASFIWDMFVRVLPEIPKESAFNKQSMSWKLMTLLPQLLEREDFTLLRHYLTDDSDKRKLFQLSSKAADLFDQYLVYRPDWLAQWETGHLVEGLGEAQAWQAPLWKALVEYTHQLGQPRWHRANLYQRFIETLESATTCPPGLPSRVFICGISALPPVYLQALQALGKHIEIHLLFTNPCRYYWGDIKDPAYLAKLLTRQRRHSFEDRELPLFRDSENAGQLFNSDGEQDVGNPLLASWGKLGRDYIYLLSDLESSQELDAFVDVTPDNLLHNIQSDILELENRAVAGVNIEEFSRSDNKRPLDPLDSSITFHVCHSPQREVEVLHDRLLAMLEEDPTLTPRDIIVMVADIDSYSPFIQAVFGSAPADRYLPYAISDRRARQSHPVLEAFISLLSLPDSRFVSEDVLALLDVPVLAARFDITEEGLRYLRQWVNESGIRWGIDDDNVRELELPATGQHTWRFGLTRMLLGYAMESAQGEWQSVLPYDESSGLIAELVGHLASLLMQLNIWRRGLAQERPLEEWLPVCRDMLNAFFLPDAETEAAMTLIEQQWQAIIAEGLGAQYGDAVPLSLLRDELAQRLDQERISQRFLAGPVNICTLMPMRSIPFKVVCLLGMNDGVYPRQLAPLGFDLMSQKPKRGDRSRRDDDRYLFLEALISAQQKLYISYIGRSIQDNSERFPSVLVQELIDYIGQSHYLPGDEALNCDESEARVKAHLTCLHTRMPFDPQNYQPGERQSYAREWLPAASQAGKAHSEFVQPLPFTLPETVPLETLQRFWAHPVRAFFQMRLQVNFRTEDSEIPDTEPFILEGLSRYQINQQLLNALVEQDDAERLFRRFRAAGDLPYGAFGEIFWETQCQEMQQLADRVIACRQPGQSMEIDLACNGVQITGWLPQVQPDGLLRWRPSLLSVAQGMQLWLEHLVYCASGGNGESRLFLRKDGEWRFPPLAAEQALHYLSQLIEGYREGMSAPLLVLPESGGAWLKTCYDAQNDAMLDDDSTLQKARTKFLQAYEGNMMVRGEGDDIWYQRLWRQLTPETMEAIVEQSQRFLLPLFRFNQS
Sequence of Exodeoxyribonuclease V (P08394 whole entry, the tested form may be a part): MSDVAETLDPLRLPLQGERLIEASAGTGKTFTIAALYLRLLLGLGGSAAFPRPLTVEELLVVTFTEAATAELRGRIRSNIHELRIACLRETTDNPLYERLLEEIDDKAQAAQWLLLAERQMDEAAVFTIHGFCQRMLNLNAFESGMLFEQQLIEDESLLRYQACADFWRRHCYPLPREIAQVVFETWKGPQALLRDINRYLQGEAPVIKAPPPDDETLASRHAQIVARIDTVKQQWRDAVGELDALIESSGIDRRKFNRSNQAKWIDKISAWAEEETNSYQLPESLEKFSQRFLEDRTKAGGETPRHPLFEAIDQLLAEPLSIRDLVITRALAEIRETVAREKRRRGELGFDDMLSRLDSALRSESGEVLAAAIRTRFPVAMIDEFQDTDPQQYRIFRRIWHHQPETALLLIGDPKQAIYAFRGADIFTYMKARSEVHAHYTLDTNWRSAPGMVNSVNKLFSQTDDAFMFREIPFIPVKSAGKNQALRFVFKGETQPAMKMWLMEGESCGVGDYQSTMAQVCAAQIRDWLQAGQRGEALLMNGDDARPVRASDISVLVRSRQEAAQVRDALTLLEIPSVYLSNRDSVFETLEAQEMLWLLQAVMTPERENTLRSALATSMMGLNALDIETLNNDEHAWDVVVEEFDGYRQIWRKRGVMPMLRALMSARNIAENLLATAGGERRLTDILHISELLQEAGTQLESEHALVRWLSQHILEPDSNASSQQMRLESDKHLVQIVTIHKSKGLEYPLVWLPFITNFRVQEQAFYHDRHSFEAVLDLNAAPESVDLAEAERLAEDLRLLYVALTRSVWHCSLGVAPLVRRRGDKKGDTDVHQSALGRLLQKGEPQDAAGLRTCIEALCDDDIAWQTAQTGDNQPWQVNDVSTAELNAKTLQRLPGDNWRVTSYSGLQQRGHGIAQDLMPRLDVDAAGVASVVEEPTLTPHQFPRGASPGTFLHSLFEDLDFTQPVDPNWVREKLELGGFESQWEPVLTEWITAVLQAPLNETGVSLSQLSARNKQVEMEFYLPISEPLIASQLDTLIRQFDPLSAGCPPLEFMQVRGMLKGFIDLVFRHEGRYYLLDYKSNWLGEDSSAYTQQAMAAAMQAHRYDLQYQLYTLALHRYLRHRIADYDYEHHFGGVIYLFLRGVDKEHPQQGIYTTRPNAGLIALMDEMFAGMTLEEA

As a reminder, the IC50 is the concentration that gives 50% inhibition. `NC(=O)c1cccc2c1NC(C(=O)O)C1CC=CC21` (centres undefined): the IC50 in [1] is 58.6 µM (active); in test [2], 10.4 µM (active); in [3], > 100 µM (not active); in [4], 3 µM (active); in test [5], 86 µM (active); in test [6] it was 55.5 µM (active).

Take `COc1cc(OC)c(C(c2cc3c(cc2O)OCO3)N2CCOCC2)c(OC)c1` (centres undefined): in [7], the IC50 is given as > 40 µM (not active).

Usually CC50 stands for the concentration at which the toxic effect on the cells reaches its halfway point. As a reminder, the AC50 is the midpoint of the concentration-response curve, whichever way the signal moves. In general, EC50 refers to the concentration needed to bring the measured effect to its halfway point. As to `O=C(Nc1ccc(N2CCN(C(=O)c3ccccc3)CC2)cc1)c1ccc([N+](=O)[O-])o1`, the IC50 in test [8] is 1.64 µM (active); in test [9], 12.7 µM (not active). In the test on HeLa, the CC50 is 7.65 µM (active). Moreover, the results for the AC50 (at Paired box protein Pax-8; in test [10]) were 3.92 µM (active) and 17.9 µM (active), respectively. The EC50 in [11] was 8.79 µM (active).

Take `COc1cccc(/C=N/Nc2ncc(C(F)(F)F)cc2Cl)c1O`: the AC50 in test [12] is 1.45 µM (active); in test [14] it was 1.37 µM (active); in the test with INS1 it was 0.584 µM (active); in test [15], 0.469 µM (active); in test [17], 7.04 µM (active); in test [18], 2.15 µM (active). Moreover, the AC50 in test [19] was 17.4 µM (active); in [20], 5.59 µM (active). In addition, the values for the IC50 (in test [13]; in test [16]; on Exodeoxyribonuclease V) were 26.8 µM (not active), 98.2 µM (inactive) and > 119 µM (inactive), respectively.
